# Source: patent US6423541B1, “Process for in vitro selection of high methol producing genotypes” (Council of Scientific&Industrial Reaearch, priority 2000, dated 2002)
# What was measured:
# Format in all cases: cell-based
# [1] = tested on: regenerated shoots of Mentha arvensis variety Himalaya; assay: Survival of in vitro raised shoots on menthol containing MS basal medium
# Source text: (§1) The plant varieties analysed were Himalaya, Shivalik, Gomti, MAS-1, Kosi, Kalka of Mentha arvensis L. (2n=96). The suckers of these plant varieties were obtained from CIMAP's national gene bank for medicinal and aromatic plants for planting. The explant materials were collected from the field grown plants and surface sterilized by washing sequentially with 2% detergent, distilled water containing a few drops of Savlon (Johnson and Johnson, India), 0.1% acidified mercuric chloride and autoclaved distilled water before inoculation. About 1 cm long internodal pieces were inoculated in the MS medium (Murasighe and Skoog, 1962) containing vitamins, 100 mg l^−1 myo-inositol 3% wv^−1 sucrose, 1.5% wv^−1 agar (Difco), 0.5 .μg ml^−1 of an auxin, (NAA, 1-napthalene acetic acid) and 5 μg ml^−1 of a cytokinin (BAP, benzyl aminopurine) (Shasany et al, 1998). The cultures were grown at 25±2° C. and 400 to 600 lux light intensity with 16 h photoperiod. The regenerated shoots were separated 12 weeks after the explant inoculation for rooting and/or testing menthol tolerance.
# (§2) The regenerated shoots (3-4 cm long, containing the apical bud and 2-3 nodes) separated after 12 weeks, were inoculated into MS basal medium with or without menthol (0 to 100 μg ml^−1). Concentration of menthol in each treatment was stepped up by 10 μg in a sequential manner. On each kind of these media, 5 independently regenerated shoots were inoculated per flask; 4 flasks were inoculated per replication and each treatment was replicated 5 times, making the number of flasks to 20 and number of explants to 100 for each concentration of menthol. The experiment was conducted in the completely randomized design (CRD) fashion. Cultures were incubated and maintained at 25±2° C. and 400-600 lux light intensity with 16-hour photoperiod. The wilting response and lethality in explants was recorded every 24 hours over a period of one week.
# [2] = tested on: regenerated shoots of Mentha arvensis variety Kalka; assay: as above
# Source text: as §1, §2
# [3] = tested on: regenerated shoots of Mentha arvensis variety Kosi; assay: as above
# Source text: as §1, §2
# [4] = tested on: regenerated shoots of Mentha arvensis variety MAS-1; assay: as above
# Source text: as §1, §2
# [5] = tested on: regenerated shoots of Mentha arvensis variety Shivalik; assay: as above
# Source text: as §1, §2
# [6] = tested on: regenerated shoots of Mentha arvensis varieties; assay: whole plant or invertebrate; conditions: 168 h, read-out: mortality of shoots
# Source text: as §1
# The regenerated shoots (3-4 cm long, containing the apical bud and 2-3 nodes) separated after 12 weeks, were inoculated into MS basal medium with or without menthol (0 to 100 μg ml^−1). […] The wilting response and lethality in explants was recorded every 24 hours over a period of one week.
# [7] = 100-ppm menthol, twenty-four hours after incubation
# [8] = menthol 10 μg ml^−1, 20 shoots tested per replication
# [9] = menthol 20 μg ml^−1, 20 shoots tested per replication
# [10] = menthol 30 μg ml^−1, 20 shoots tested per replication
# [11] = menthol 40 μg ml^−1, 20 shoots tested per replication
# [12] = menthol 50 μg ml^−1, 20 shoots tested per replication
# [13] = menthol 60 μg ml^−1, 20 shoots tested per replication
# [14] = menthol 70 μg ml^−1, 20 shoots tested per replication
# [15] = menthol 80 μg ml^−1, 20 shoots tested per replication
# [16] = menthol 90 μg ml^−1, 20 shoots tested per replication
# [17] = menthol 100 μg ml^−1, 20 shoots tested per replication
structure (smiles),measurement,setting,value
CC1CCC(C(C)C)C(O)C1 (centres unmarked) [menthol],lethality,[1]; [7],100%
same,Survival after 7 days Number,[1]; menthol 10 μg ml^−1,20.0 ± 0.00
same,Survival after 24 hours Number,[1]; [8],20.0 ± 0.00
same,Survival after 7 days Number,[1]; menthol 20 μg ml^−1,20.0 ± 0.00
same,Survival after 24 hours Number,[1]; [9],20.0 ± 0.00
same,Survival after 7 days Number,[1]; menthol 30 μg ml^−1,20.0 ± 0.00
same,Survival after 24 hours Number,[1]; [10],20.0 ± 0.00
same,Survival after 7 days Number,[1]; menthol 40 μg ml^−1,17.6 ± 0.66
same,Survival after 24 hours Number,[1]; [11],20.0 ± 0.00
same,Survival after 7 days Number,[1]; menthol 50 μg ml^−1,9.0 ± 0.41
same,Survival after 24 hours Number,[1]; [12],17.0 ± 0.91
same,Survival after 7 days Number,[1]; menthol 60 μg ml^−1,2.0 ± 0.41
same,Survival after 24 hours Number,[1]; [13],14.0 ± 0.91
same,Survival after 7 days Number,[1]; menthol 70 μg ml^−1,0.2 ± 0.26
same,Survival after 24 hours Number,[1]; [14],9.0 ± 0.91
same,Survival after 7 days Number,[1]; menthol 80 μg ml^−1,0.0 ± 0.00
same,Survival after 24 hours Number,[1]; [15],4.0 ± 0.58
same,Survival after 7 days Number,[1]; menthol 90 μg ml^−1,0.0 ± 0.00
same,Survival after 24 hours Number,[1]; [16],2.0 ± 0.40
same,Survival after 7 days Number,[1]; menthol 100 μg ml^−1,0.0 ± 0.00
same,Survival after 24 hours Number,[1]; [17],0.0 ± 0.00
same,lethality,[2]; [7],98%
same,Survival after 7 days Number,[2]; menthol 10 μg ml^−1,20.0 ± 0.00
same,Survival after 24 hours Number,[2]; [8],20.0 ± 0.00
same,Survival after 7 days Number,[2]; menthol 20 μg ml^−1,20.0 ± 0.00
same,Survival after 24 hours Number,[2]; [9],20.0 ± 0.00
same,Survival after 7 days Number,[2]; menthol 30 μg ml^−1,20.0 ± 0.00
same,Survival after 24 hours Number,[2]; [10],20.0 ± 0.00
same,Survival after 7 days Number,[2]; menthol 40 μg ml^−1,17.6 ± 0.66
same,Survival after 24 hours Number,[2]; [11],20.0 ± 0.00
same,Survival after 7 days Number,[2]; menthol 50 μg ml^−1,13.8 ± 0.86
same,Survival after 24 hours Number,[2]; [12],19.4 ± 0.52
same,Survival after 7 days Number,[2]; menthol 60 μg ml^−1,10.0 ± 0.91
same,Survival after 24 hours Number,[2]; [13],17.0 ± 0.41
same,Survival after 7 days Number,[2]; menthol 70 μg ml^−1,4.0 ± 0.81
same,Survival after 24 hours Number,[2]; [14],11.0 ± 0.58
same,Survival after 7 days Number,[2]; menthol 80 μg ml^−1,0.0 ± 0.00
same,Survival after 24 hours Number,[2]; [15],6.0 ± 0.82
same,Survival after 7 days Number,[2]; menthol 90 μg ml^−1,0.0 ± 0.00
same,Survival after 24 hours Number,[2]; [16],3.0 ± 0.36
same,Survival after 7 days Number,[2]; menthol 100 μg ml^−1,0.0 ± 0.00
same,Survival after 24 hours Number,[2]; [17],0.4 ± 0.26
same,lethality,[3]; [7],99%
same,Survival after 7 days Number,[3]; menthol 10 μg ml^−1,20.0 ± 0.00
same,Survival after 24 hours Number,[3]; [8],20.0 ± 0.00
same,Survival after 7 days Number,[3]; menthol 20 μg ml^−1,20.0 ± 0.00
same,Survival after 24 hours Number,[3]; [9],20.0 ± 0.00
same,Survival after 7 days Number,[3]; menthol 30 μg ml^−1,20.0 ± 0.00
same,Survival after 24 hours Number,[3]; [10],20.0 ± 0.00
same,Survival after 7 days Number,[3]; menthol 40 μg ml^−1,18.0 ± 0.41
same,Survival after 24 hours Number,[3]; [11],20.0 ± 0.00
same,Survival after 7 days Number,[3]; menthol 50 μg ml^−1,10.0 ± 0.52
same,Survival after 24 hours Number,[3]; [12],17.0 ± 0.41
same,Survival after 7 days Number,[3]; menthol 60 μg ml^−1,8.0 ± 0.82
same,Survival after 24 hours Number,[3]; [13],15.0 ± 0.91
same,Survival after 7 days Number,[3]; menthol 70 μg ml^−1,1.0 ± 0.40
same,Survival after 24 hours Number,[3]; [14],7.0 ± 0.82
same,Survival after 7 days Number,[3]; menthol 80 μg ml^−1,0.0 ± 0.00
same,Survival after 24 hours Number,[3]; [15],3.0 ± 0.41
same,Survival after 7 days Number,[3]; menthol 90 μg ml^−1,0.0 ± 0.00
same,Survival after 24 hours Number,[3]; [16],2.0 ± 0.32
same,Survival after 7 days Number,[3]; menthol 100 μg ml^−1,0.0 ± 0.00
same,Survival after 24 hours Number,[3]; [17],0.2 ± 0.32
same,survival,"[4]; 80 ppm menthol, after 7 days of incubation",2%
same,lethality,[4]; [7],98%
same,Survival after 7 days Number,[4]; menthol 10 μg ml^−1,20.0 ± 0.00
same,Survival after 24 hours Number,[4]; [8],20.0 ± 0.00
same,Survival after 7 days Number,[4]; menthol 20 μg ml^−1,20.0 ± 0.00
same,Survival after 24 hours Number,[4]; [9],20.0 ± 0.00
same,Survival after 7 days Number,[4]; menthol 30 μg ml^−1,20.0 ± 0.00
same,Survival after 24 hours Number,[4]; [10],20.0 ± 0.00
same,Survival after 7 days Number,[4]; menthol 40 μg ml^−1,18.0 ± 0.57
same,Survival after 24 hours Number,[4]; [11],20.0 ± 0.00
same,Survival after 7 days Number,[4]; menthol 50 μg ml^−1,13.4 ± 0.66
same,Survival after 24 hours Number,[4]; [12],19.0 ± 0.57
same,Survival after 7 days Number,[4]; menthol 60 μg ml^−1,10.0 ± 0.91
same,Survival after 24 hours Number,[4]; [13],16.0 ± 0.57
same,Survival after 7 days Number,[4]; menthol 70 μg ml^−1,3.0 ± 0.58
same,Survival after 24 hours Number,[4]; [14],10.0 ± 0.82
same,Survival after 7 days Number,[4]; menthol 80 μg ml^−1,0.4 ± 0.32
same,Survival after 24 hours Number,[4]; [15],5.0 ± 0.41
same,Survival after 7 days Number,[4]; menthol 90 μg ml^−1,0.0 ± 0.00
same,Survival after 24 hours Number,[4]; [16],3.0 ± 0.32
same,Survival after 7 days Number,[4]; menthol 100 μg ml^−1,0.0 ± 0.00
same,Survival after 24 hours Number,[4]; [17],0.4 ± 0.32
same,lethality,[5]; [7],98%
same,Survival after 7 days Number,[5]; menthol 10 μg ml^−1,20.0 ± 0.00
same,Survival after 24 hours Number,[5]; [8],20.0 ± 0.00
same,Survival after 7 days Number,[5]; menthol 20 μg ml^−1,20.0 ± 0.00
same,Survival after 24 hours Number,[5]; [9],20.0 ± 0.00
same,Survival after 7 days Number,[5]; menthol 30 μg ml^−1,20.0 ± 0.00
same,Survival after 24 hours Number,[5]; [10],20.0 ± 0.00
same,Survival after 7 days Number,[5]; menthol 40 μg ml^−1,18.0 ± 0.41
same,Survival after 24 hours Number,[5]; [11],20.0 ± 0.00
same,Survival after 7 days Number,[5]; menthol 50 μg ml^−1,11.0 ± 0.41
same,Survival after 24 hours Number,[5]; [12],18.0 ± 0.91
same,Survival after 7 days Number,[5]; menthol 60 μg ml^−1,5.0 ± 0.71
same,Survival after 24 hours Number,[5]; [13],15.0 ± 0.11
same,Survival after 7 days Number,[5]; menthol 70 μg ml^−1,2.0 ± 0.32
same,Survival after 24 hours Number,[5]; [14],8.0 ± 0.91
same,Survival after 7 days Number,[5]; menthol 80 μg ml^−1,0.0 ± 0.00
same,Survival after 24 hours Number,[5]; [15],4.0 ± 0.41
same,Survival after 7 days Number,[5]; menthol 90 μg ml^−1,0.0 ± 0.00
same,Survival after 24 hours Number,[5]; [16],2.0 ± 0.41
same,Survival after 7 days Number,[5]; menthol 100 μg ml^−1,0.0 ± 0.00
same,Survival after 24 hours Number,[5]; [17],0.4 ± 0.32
same,mortality at 80 ppm,[6],100%
